Activity calls are given as the source filed them. No cut-off for these calls is given here.
Tests used:
[1] = Cmax in Sprague-Dawley rat at 10 mg/kg, po by LC-MS/MS method; assay type: ADME, organism-based; conditions: in vivo
[2] = Cmax in Sprague-Dawley rat at 1 mg/kg, iv by LC-MS/MS method; assay type: ADME, organism-based; conditions: in vivo
MHCC97H [3] = assay: Induction of apoptosis in human MHCC97H cells assessed as late apoptotic cells at 100 nM incubated for 24 hrs by Annexin-V-FITC/PI staining based flow cytometry analysis (reference value: 4.24%); assay type: functional
MHCC97H [4] = assay: Induction of apoptosis in human MHCC97H cells assessed as late apoptotic cells at 10 nM incubated for 24 hrs by Annexin-V-FITC/PI staining based flow cytometry analysis (reference value: 4.24%); assay type: functional
[5] = biological target: T1, Hepatocyte growth factor receptor (Homo sapiens, UniProt P08581); assay: Induction of c-Met degradation in human MHCC97H cells assessed as downregulation of c-Met protein level at 500 nM after 24 hrs by Western blotting analysis; assay type: cell-based
MHCC97H [6] = assay: Inhibition of cell growth in human MHCC97H cells incubated for 5 days by microplate reader assay; assay type: functional, cell-based; conditions: time 5.0 day
MHCC97H [7] = assay: Inhibition of colony formation in human MHCC97H cells at 3 to 100 nM incubated for 2 weeks by crystal violet staining based assay; assay type: functional, cell-based; conditions: dose 3-100 nM
MHCC97H [8] = assay: Induction of apoptosis in human MHCC97H cells assessed as viable cells at 100 nM incubated for 24 hrs by Annexin-V-FITC/PI staining based flow cytometry analysis (reference value: 86.3%); assay type: functional; conditions: read-out: Activity
[9] = Toxicity in BALB/c mouse xenografted with human MHCC97H cells assessed as lung lesions at 10 mg/kg, ip qd for 22 days and measured every 2 days by H and E staining based assay; assay type: organism-based; conditions: in vivo, 528 h, time 22 day
MHCC97H [10] = assay: Antitumor activity against human MHCC97H cells xenografted in BALB/c mouse assessed as tumor growth inhibition at 20 mg/kg, po qd for 22 days and measured every 2 days by Ki67 staining based analysis; assay type: functional, organism-based; conditions: time 22.0 day
MHCC97H [11] = assay: Induction of cell cycle arrest in human MHCC97H cells assessed as accumulation of cells at G2 phase at 100 nM incubated for 24 hrs by PI staining based flow cytometry analysis (reference value: 19.1%); assay type: functional
[12] = Toxicity in BALB/c mouse xenografted with human MHCC97H cells assessed as liver lesions at 20 mg/kg, po qd for 22 days and measured every 2 days by H and E staining based assay; assay type: organism-based; conditions: in vivo, 528 h, time 22 day
[13] = Toxicity in BALB/c mouse xenografted with human MHCC97H cells assessed as spleen lesions at 20 mg/kg, po qd for 22 days and measured every 2 days by H and E staining based assay; assay type: organism-based; conditions: in vivo, 528 h, time 22 day
[14] = Mean residence time (0 to infinity) in Sprague-Dawley rat at 1 mg/kg, iv by LC-MS/MS method; assay type: ADME, organism-based; conditions: in vivo
MHCC97H [15] = assay: Induction of apoptosis in human MHCC97H cells assessed as viable cells at 10 nM incubated for 24 hrs by Annexin-V-FITC/PI staining based flow cytometry analysis (reference value: 86.3%); assay type: functional; conditions: read-out: Activity
[16] = Half-life in Sprague-Dawley rat at 10 mg/kg, po by LC-MS/MS method; assay type: ADME, organism-based; conditions: in vivo
[17] = Toxicity in BALB/c mouse xenografted with human MHCC97H cells assessed as liver lesions at 10 mg/kg, ip qd for 22 days and measured every 2 days by H and E staining based assay; assay type: organism-based; conditions: in vivo, 528 h, time 22 day
MHCC97H [18] = assay: Induction of cell cycle arrest in human MHCC97H cells assessed as accumulation of cells at G2 phase at 3 nM incubated for 24 hrs by PI staining based flow cytometry analysis (reference value: 19.1%); assay type: functional
[19] = Clearance in Sprague-Dawley rat at 10 mg/kg, po by LC-MS/MS method; assay type: ADME, organism-based; conditions: in vivo
[20] = Oral bioavailability in Sprague-Dawley rat at 10 mg/kg by LC-MS/MS method; assay type: ADME, organism-based; conditions: in vivo
[21] = Toxicity in BALB/c mouse xenografted with human MHCC97H cells assessed as kidney lesions at 10 mg/kg, ip qd for 22 days and measured every 2 days by H and E staining based assay; assay type: organism-based; conditions: in vivo, 528 h, time 22 day
MHCC97H [22] = assay: Induction of apoptosis in human MHCC97H cells assessed as necrotic cells at 10 nM incubated for 24 hrs by Annexin-V-FITC/PI staining based flow cytometry analysis (reference value: 1.77%); assay type: functional
[23] = Toxicity in BALB/c mouse xenografted with human MHCC97H cells assessed as heart lesions at 10 mg/kg, ip qd for 22 days and measured every 2 days by H and E staining based assay; assay type: organism-based; conditions: in vivo, 528 h, time 22 day
MHCC97H [24] = assay: Induction of cell cycle arrest in human MHCC97H cells assessed as accumulation of cells at G1 phase at 100 nM incubated for 24 hrs by PI staining based flow cytometry analysis (reference value: 70.4%); assay type: functional
BaF3 [25] = assay: Antiproliferative activity against mouse BaF3 cells harboring TPR-MET D1228N mutant fusion protein incubated for 72 hrs by CellTiter-Glo reagent based assay; assay type: functional, cell-based; conditions: BaF3, 72 h
[26] = Tmax in Sprague-Dawley rat at 10 mg/kg, po by LC-MS/MS method; assay type: ADME, organism-based; conditions: in vivo
MHCC97H [27] = assay: Induction of apoptosis in human MHCC97H cells assessed as viable cells at 3 nM incubated for 24 hrs by Annexin-V-FITC/PI staining based flow cytometry analysis (reference value: 86.3%); assay type: functional; conditions: read-out: Activity
Mus musculus = assay: Downregulation of phosphorylated c-Met level in BALB/c mouse tumor xenografted with human MHCC97H cells at 20 mg/kg, po qd for 22 days and measured every 2 days by Western blotting analysis; assay type: functional, organism-based; conditions: time 22.0 day
MHCC97H [28] = assay: Induction of apoptosis in human MHCC97H cells assessed as necrotic cells at 100 nM incubated for 24 hrs by Annexin-V-FITC/PI staining based flow cytometry analysis (reference value: 1.77%); assay type: functional
[29] = Clearance in Sprague-Dawley rat at 1 mg/kg, iv by LC-MS/MS method; assay type: ADME, organism-based; conditions: in vivo
[30] = Tmax in Sprague-Dawley rat at 1 mg/kg, iv by LC-MS/MS method; assay type: ADME, organism-based; conditions: in vivo
[31] = Toxicity in BALB/c mouse xenografted with human MHCC97H cells assessed as kidney lesions at 20 mg/kg, po qd for 22 days and measured every 2 days by H and E staining based assay; assay type: organism-based; conditions: in vivo, 528 h, time 22 day
MHCC97H [32] = assay: Induction of cell cycle arrest in human MHCC97H cells assessed as accumulation of cells at G1 phase at 3 nM incubated for 24 hrs by PI staining based flow cytometry analysis (reference value: 70.4%); assay type: functional
[33] = AUC(0 to infinity) in Sprague-Dawley rat at 1 mg/kg, iv by LC-MS/MS method; assay type: ADME, organism-based; conditions: in vivo
[34] = biological target: T1, Hepatocyte growth factor receptor; assay: Induction of c-Met degradation in human MHCC97H cells at 1 uM incubated for 24 hrs by Western blotting analysis; assay type: cell-based
[35] = Toxicity in BALB/c mouse xenografted with human MHCC97H cells assessed as reduction in body weight at 20 mg/kg, po qd for 22 days and measured every 2 days; assay type: organism-based; conditions: in vivo, 528 h, time 22 day
MHCC97H [36] = assay: Antiproliferative activity against human MHCC97H cells incubated for 24 hrs by CCK8 assay; assay type: functional, cell-based
BaF3 [37] = assay: Antiproliferative activity against mouse BaF3 cells harboring TPR-MET Y1230H mutant fusion protein incubated for 72 hrs by CellTiter-Glo reagent based assay; assay type: functional, cell-based; conditions: BaF3, 72 h

T1 sequence (P08581 whole entry): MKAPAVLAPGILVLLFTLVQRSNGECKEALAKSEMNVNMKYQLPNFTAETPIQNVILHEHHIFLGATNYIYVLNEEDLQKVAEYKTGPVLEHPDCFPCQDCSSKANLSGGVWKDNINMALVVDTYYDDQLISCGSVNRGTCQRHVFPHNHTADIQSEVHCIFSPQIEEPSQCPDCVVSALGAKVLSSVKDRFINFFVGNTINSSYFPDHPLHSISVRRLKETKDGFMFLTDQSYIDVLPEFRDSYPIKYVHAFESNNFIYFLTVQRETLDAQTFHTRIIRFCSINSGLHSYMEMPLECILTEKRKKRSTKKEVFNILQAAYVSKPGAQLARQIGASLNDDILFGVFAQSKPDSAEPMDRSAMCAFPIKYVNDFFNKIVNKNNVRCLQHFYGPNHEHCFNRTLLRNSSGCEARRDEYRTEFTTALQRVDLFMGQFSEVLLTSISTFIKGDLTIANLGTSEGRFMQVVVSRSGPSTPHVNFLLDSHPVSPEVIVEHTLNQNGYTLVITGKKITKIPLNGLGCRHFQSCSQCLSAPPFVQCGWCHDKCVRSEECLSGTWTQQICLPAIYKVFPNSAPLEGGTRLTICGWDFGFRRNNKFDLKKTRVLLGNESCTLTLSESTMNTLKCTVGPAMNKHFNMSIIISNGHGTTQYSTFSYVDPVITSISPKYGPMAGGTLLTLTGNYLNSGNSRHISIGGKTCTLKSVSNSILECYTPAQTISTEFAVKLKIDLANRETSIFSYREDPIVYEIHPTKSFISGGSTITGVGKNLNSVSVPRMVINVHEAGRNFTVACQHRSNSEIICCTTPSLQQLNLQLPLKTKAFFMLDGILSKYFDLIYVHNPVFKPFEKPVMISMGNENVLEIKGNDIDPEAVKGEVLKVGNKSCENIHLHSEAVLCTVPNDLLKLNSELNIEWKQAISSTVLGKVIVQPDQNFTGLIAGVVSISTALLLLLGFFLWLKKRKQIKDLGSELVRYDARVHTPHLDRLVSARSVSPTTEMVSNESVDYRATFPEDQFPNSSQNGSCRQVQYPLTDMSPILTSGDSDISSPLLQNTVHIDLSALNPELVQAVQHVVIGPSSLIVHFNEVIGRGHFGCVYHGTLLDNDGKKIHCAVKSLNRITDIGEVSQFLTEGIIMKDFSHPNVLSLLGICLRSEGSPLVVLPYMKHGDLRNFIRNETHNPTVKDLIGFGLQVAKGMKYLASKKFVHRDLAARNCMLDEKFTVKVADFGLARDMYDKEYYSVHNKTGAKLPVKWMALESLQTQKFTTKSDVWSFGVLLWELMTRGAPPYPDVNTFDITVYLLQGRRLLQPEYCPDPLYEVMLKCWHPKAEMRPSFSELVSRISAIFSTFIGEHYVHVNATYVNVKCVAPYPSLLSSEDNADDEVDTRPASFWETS

Cmax [1]: 16.3 ng/mL
Cmax [2]: 1630 ng/mL
Activity [5]: Active
MRT inf [14]: 3.86 h
half-life [16]: 2.57 h
CL/F [19]: 3310 mL/min/kg
bioavailability [20]: 0.8%
IC50 (BaF3 [25]): 463 nM
Tmax [26]: 1.17 h
clearance [29]: 17.5 mL/min/kg
Tmax [30]: 4.98 min
AUC(0-inf) [33]: 994 ng·h/mL
Activity [34]: 84.8%
IC50 (BaF3 [37]): 378 nM
SMILES: N#Cc1cccc(-c2ccc(=O)n(Cc3cccc(-c4ncc(OCC5CCN(CCCCCC(=O)NCC67CC8CC(CC(C8)C6)C7)CC5)cn4)c3)n2)c1
Activity (MHCC97H [3]): 6.06%
Activity (MHCC97H [4]): 6.18%
inhibition (MHCC97H [6]): Active
inhibition (MHCC97H [7]): Active
viability at 0.1 µM (MHCC97H [8]): 52.7%
Activity [9]: Non-Toxic
Activity (MHCC97H [10]): Active
Activity (MHCC97H [11]): 13.6%
Activity [12]: Non-Toxic
Activity [13]: Non-Toxic
viability at 0.01 µM (MHCC97H [15]): 72.7%
Activity [17]: Non-Toxic
Activity (MHCC97H [18]): 15.9%
Activity [21]: Non-Toxic
Activity (MHCC97H [22]): 1.4%
Activity [23]: Non-Toxic
Activity (MHCC97H [24]): 79.1%
viability at 0.003 µM (MHCC97H [27]): 79.5%
Activity (Mus musculus): Active
Activity (MHCC97H [28]): 1.35%
Activity [31]: Non-Toxic
Activity (MHCC97H [32]): 74.6%
Activity [35]: Non-Toxic
IC50 (MHCC97H [36]): 2.62 nM

— ChEMBL document CHEMBL5523740, “Discovery of Potent and Selective c-Met Degraders for Hepatocellular Carcinoma Treatment” (J Med Chem, 2024)
